Test results as given in the NIST ThermoML archive (doi:10.1021/je9006037).

Test: refractive index (Na D-line) (dimensionless); xn = mol fraction of the nth substance listed
Conditions: 101 kPa, Liquid

CCn1cc[n+](C)c1.O=S(=O)([O-])C(F)(F)F [1-ethyl-3-methylimidazolium trifluoromethanesulfonate] + CC(C)O
refractive index
Conditions	288.15 K	298.15 K	308.15 K	318.15 K	328.15 K	338.15 K
x1 = 0.04997	1.38697	1.38304	1.37919	1.3753	1.37148	1.36735
x1 = 0.09937	1.39302	1.38935	1.38578	1.38236	1.37896	1.37487
x1 = 0.1504	1.39853	1.39494	1.39186	1.38861	1.38506	1.38103
x1 = 0.1995	1.40326	1.39957	1.39662	1.39356	1.39032	1.38662
x1 = 0.2508	1.40739	1.40382	1.40089	1.39817	1.39474	1.3916
x1 = 0.2997	1.411	1.4074	1.40439	1.40147	1.3983	1.39544
x1 = 0.3988	1.41689	1.41365	1.41071	1.40758	1.40457	1.40189
x1 = 0.5014	1.42209	1.41872	1.41564	1.41261	1.40972	1.4068
x1 = 0.6012	1.42562	1.42259	1.41956	1.41667	1.41379	1.41098
x1 = 0.6972	1.42868	1.42574	1.42285	1.41998	1.41714	1.41431
x1 = 0.7978	1.43159	1.42861	1.42579	1.42298	1.42017	1.41738
x1 = 0.8342	1.43251	1.42965	1.42678	1.42395	1.42115	1.41837
x1 = 0.8905	1.43379	1.43098	1.42818	1.42541	1.42264	1.41986
x1 = 1	1.43599	1.43322	1.4304	1.42767	1.42494	1.42222

CCn1cc[n+](C)c1.O=S(=O)([O-])C(F)(F)F [1-ethyl-3-methylimidazolium trifluoromethanesulfonate] + CCCO
refractive index
Conditions	288.15 K	298.15 K	308.15 K	318.15 K	328.15 K	338.15 K
x1 = 0.05007	1.39381	1.38991	1.38613	1.38243	1.37892	1.37545
x1 = 0.1013	1.39933	1.39557	1.39221	1.38877	1.38613	1.38306
x1 = 0.1503	1.40371	1.4001	1.3968	1.3938	1.39112	1.38856
x1 = 0.2001	1.40743	1.404	1.4009	1.39795	1.39522	1.39266
x1 = 0.2497	1.41088	1.40747	1.40434	1.40127	1.39872	1.39631
x1 = 0.3008	1.41391	1.41061	1.40747	1.40445	1.40173	1.39926
x1 = 0.3996	1.41854	1.41537	1.41218	1.40923	1.40634	1.40392
x1 = 0.4965	1.42297	1.41986	1.41681	1.41376	1.41082	1.4078
x1 = 0.602	1.42671	1.42372	1.42062	1.41752	1.41447	1.41163
x1 = 0.7043	1.42943	1.42647	1.42347	1.42076	1.41793	1.41508
x1 = 0.7945	1.43174	1.42886	1.42604	1.42323	1.4204	1.41758
x1 = 0.8421	1.4325	1.42963	1.4268	1.42398	1.42115	1.41838
x1 = 0.8988	1.43378	1.43096	1.42815	1.42533	1.42258	1.41984
x1 = 1	1.43599	1.43322	1.4304	1.42767	1.42494	1.42222
